Assay results: publication PMC12903857

Experiments:
14-3-3σ/C-RAF259 [1] = target: T1, 14-3-3σ/C-RAF259 (Homo sapiens, UniProt P31947); assay: FA protein titration, C-RAF259 peptide; details: appKd DMSO / appKd compound
14-3-3σ/C-RAF259 [2] = target: T1, 14-3-3σ/C-RAF259; assay: Intact mass spectrometry assay with C-RAF259 phospho-peptide; type: binding; set-up: full-length for mass spectrometry and fluorescence anisotropy assays; made in house; host or cells: E. coli Rosetta 2(DE3)pLysS (14-3-3σ); peptides from Elim Biopharmaceuticals; details: 1 μM compound, 100 nM 14-3-3σ, 18 µM peptide
Experimental: (§1) In analogy to our previous work, two orthogonal assays were used for screening (Figure S2). […] Dose responses of compounds were performed in the absence and presence of the C-RAF259 phospho-peptide to distinguish between neutral binders and cooperative molecular glues. The experiment was performed as a time course, with measurements every 8 h, after an 1 h incubation. Additionally, the compounds were tested in a fluorescence anisotropy (FA) assay in the presence of the 5-carboxyfluorescein-(FAM)-labeled C-RAF259 peptide. […] The full dose–response data for all compounds are available in the SI (Tables S2–S5, Figures S5–S8, Figures S15–S18, Figures S25–S32, Figures S37–S39). The dose–response data from both assays were also visually compared in the form of bar graphs. […] For FA experiments, the EC50 values from the overnight measurement were calculated and plotted as bar graphs showing the […] log EC50 value (pEC50). Compounds acting as MGs were expected to show increases in both types of bar graphs.
(§2) transferred in the assay plates.
(§3) The reacton mixtures were incubated
(§4) dispensed in the assay plates.
(§5) incubaton at room temperature .

14-3-3σ/C-RAF259 [3] = target: T1, 14-3-3σ/C-RAF259; assay: Fluorescence anisotropy (FA) compound titration; type: binding; details: 10 nM C-RAF259-FAM 10-mer, 5 μΜ 14-3-3σ, overnight; for EC50: read-out: Compound titrations EC50 value C-RAF259
Experimental: as §1, §2, §3, §4, §5

14-3-3σ = target: T2, 14-3-3σ (Homo sapiens, UniProt P31947); assay: Intact mass spectrometry assay, apo (no peptide); type: binding; set-up: full-length for mass spectrometry and fluorescence anisotropy assays; made in house; host or cells: E. coli Rosetta 2(DE3)pLysS, pPROEX HTb vector; details: 1 μM compound, 100 nM 14-3-3σ
T2 sequence (P31947 1-248): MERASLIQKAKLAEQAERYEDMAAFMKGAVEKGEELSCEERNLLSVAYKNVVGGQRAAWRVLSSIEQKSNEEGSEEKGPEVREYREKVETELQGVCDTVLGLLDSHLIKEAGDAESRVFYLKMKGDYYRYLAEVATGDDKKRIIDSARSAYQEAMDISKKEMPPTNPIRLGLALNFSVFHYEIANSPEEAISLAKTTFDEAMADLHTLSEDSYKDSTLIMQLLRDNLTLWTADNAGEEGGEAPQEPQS
Experimental: as §1, §2, §3, §4, §5

| SMILES | Fold stabilization (100 µM compound), C-RAF259 (10mer) (14-3-3σ/C-RAF259 [1]) | % bound, C-RAF259 (11mer), 1h (14-3-3σ/C-RAF259 [2]) | % bound, C-RAF259 (11mer), 8h (14-3-3σ/C-RAF259 [2]) | % bound, C-RAF259 (11mer), 16h (14-3-3σ/C-RAF259 [2]) | % bound, C-RAF259 (11mer), 24h (14-3-3σ/C-RAF259 [2]) | EC50 (14-3-3σ/C-RAF259 [3]) | % bound, APO, 1h (14-3-3σ) | % bound, APO, 8h (14-3-3σ) | % bound, APO, 16h (14-3-3σ) | % bound, APO, 24h (14-3-3σ) | Compound titrations EC50 value C-RAF259 (14-3-3σ/C-RAF259 [3]) |
| --- | --- | --- | --- | --- | --- | --- | --- | --- | --- | --- | --- |
| O=C(CCl)NCC1CCN(S(=O)(=O)c2ccc(F)cc2)CC1 [Compound 11] | 4 fold | 6.9% | 15% | 26% | 50.3% | 17 ± 3 µM | 0% | 1.5% | 4.7% | 6.9% | – |
| O=C(CCl)NCC1CCN(S(=O)(=O)c2ccc(Cl)cc2)CC1 [Compound 12] | 22 fold | 12.1% | 32.8% | 47.8% | 64.4% | 3 ± 1 µM | 1% | 1.5% | 2.9% | 4.3% | – |
| O=C(CCl)NCC1CCN(S(=O)(=O)c2ccc(C(F)(F)F)cc2)CC1 [Compound 18] | 15 fold | 8.2% | 17.9% | 28.4% | 46.8% | 17 ± 1 µM | 0% | 0.9% | 6.5% | 12.7% | – |
| O=C(CCl)NCC1CCN(S(=O)(=O)C2CCC3(CC2)CC3(F)F)CC1 (stereo not shown) [Compound 34] | – | 0.5% | 0.9% | 0.9% | 3.8% | > 1000 µM | 0% | 0.5% | 0.9% | 0.9% | – |
| O=C(CCl)NCC1CCN(S(=O)(=O)C2CC3(C2)CC(F)(F)C3)CC1 [Compound 35] | – | 0% | 0% | 0% | 3.8% | > 1000 µM | 0% | 0% | 0% | 0.5% | – |
| O=C(CCl)N1CC2(CCN(S(=O)(=O)c3ccc(Br)c(F)c3)CC2)C1 [Compound 49] | – | 11.1% | 32.4% | 53.8% | 86.6% | 47 ± 4 µM | 1.9% | 5.2% | 13.8% | 15.9% | – |
| O=C(CCl)N1CC2(CCN(S(=O)(=O)c3ccc(Br)c(F)c3)CC2(F)F)C1 [Compound 52] | – | 25% | 45.1% | 64.3% | 80.2% | 94 ± 9 µM | 2.9% | 11.3% | 18.5% | 28.6% | – |
| O=C(CCl)NC1CC2(CCN(S(=O)(=O)c3ccc(Br)c(F)c3)CC2)C1 [Compound 55] | – | 6.1% | 9.9% | 20.6% | 34.6% | > 1000 µM | 0% | 0.9% | 1.9% | 7.4% | – |
| O=C(CCl)N1CC2CCC1CC2NS(=O)(=O)c1ccc(Br)c(F)c1 (stereo not shown) [Compound 61] | – | 37.1% | 68% | 80.9% | 83.3% | 78 ± 7 µM | 5.2% | 13.3% | 21.8% | 36.8% | – |
| O=C(CCl)N1CC2(CC(NS(=O)(=O)c3ccc(Br)c(F)c3)CO2)C1 (stereo not shown) [Compound 67] | – | 15% | 30.4% | 55.6% | 81.5% | 14 ± 1 µM | 2.9% | 9.1% | 15.9% | 23% | – |
| O=C(CCl)NCc1ccc(NS(=O)(=O)c2ccc(Br)c(F)c2)cc1 [Compound 73] | – | 1.9% | 2.9% | 12.1% | 31% | > 1000 µM | 0% | 1.5% | 1.5% | 3.8% | – |
| O=C(C(Cl)Cl)N1CC2(CCN(S(=O)(=O)c3ccc(Br)c(F)c3)CC2(F)F)C1 [Compound 74] | – | 0% | 0% | 0% | 4.7% | > 1000 µM | 0% | 0% | 0% | 0% | completely inactive |
| C=C(F)C(=O)N1CC2(CCN(S(=O)(=O)c3ccc(Br)c(F)c3)CC2(F)F)C1 [Compound 75] | – | 0% | 0% | 0% | 2.9% | > 1000 µM | 0% | 0% | 0% | 0% | completely inactive |
| O=C(CCl)N1CC[C@]2(CCN(S(=O)(=O)c3ccc(Br)c(F)c3)C2)C1 [Compound 89] | – | 43% | 65.8% | 82% | – | > 250 µM | 5.6% | 14.5% | 36.2% | 53.9% | – |
